IC50, EC50 and CC50 data for 27 compounds are collected here from ChEMBL document CHEMBL3779807, “Synthesis and structure-activity relationship of α-keto amides as enterovirus 71 3C protease inhibitors” (Bioorg Med Chem Lett, 2016).

A word on the IC50: it is the concentration needed to halve the response being measured. A lower IC50 goes with greater potency. As usually defined, the EC50 is the midpoint of the concentration-response curve. A lower EC50 goes with higher potency in that assay. In general, CC50 refers to the concentration that lowers cell viability or growth by half. A lower CC50 goes with greater toxicity to the cells.

Data set [1] is described as follows: Inhibition of EV71 3C protease using NMA-IEALFQGPPK(DNP)FR as substrate preincubated for 30 mins followed by addition of substrate measured after 2 hrs by FRET assay. Details: species or system Enterovirus A71.
A further data set concerns Enterovirus A71. Kind of data set: Antiviral activity against EV71 pseudotype virus infected in RD cells after 24 hrs by Bright-Glo luciferase assay. It counts as functional, organism-based. The note with it: Enterovirus A.
Data set [2] is described as follows: Cytotoxicity against human RD cells assessed viable cells after 24 hrs by WST-1 assay. It is filed as cell-based. A general note: Formazan colour is commonly taken as a measure of viable cells.

Compound `CCCCCCNC(=O)C(=O)[C@H](C[C@@H]1CCCNC1=O)NC(=O)[C@H](Cc1ccccc1)NC(=O)/C=C/c1ccccc1` had a concentration for half-maximal inhibition (IC50) in data set [1] greater than 20 µM. In the data set on Enterovirus A71, this compound gave a concentration for a half-maximal effect (EC50) greater than 20 µM. The compound also had a CC50 at 24 h in data set [2] greater than 100 µM.

Compound `CC(C)NC(=O)C(=O)[C@H](C[C@@H]1CCCNC1=O)NC(=O)[C@H](Cc1ccccc1)NC(=O)/C=C/c1ccccc1` came in with an IC50 in data set [1] of 1.34 µM. In the data set with Enterovirus A71, this compound gave a concentration for a half-maximal effect (EC50) of 1.66 µM. The same compound had a 50% cytotoxic concentration (CC50) at 24 h in data set [2] greater than 100 µM.

Take `O=C(/C=C/c1ccccc1)N[C@@H](Cc1ccccc1)C(=O)N[C@@H](C[C@@H]1CCNC1=O)C(=O)C(=O)NC1CCCCC1`: the half-maximal inhibitory concentration (IC50) in data set [1] came to 12.7 µM. The midpoint of the response in the data set with Enterovirus A71, the EC50, lay at 8.12 µM. The same compound showed a CC50 at 24 h in data set [2] greater than 100 µM.

Regarding `CCCCCCCCCCCCNC(=O)C(=O)[C@H](C[C@@H]1CCCNC1=O)NC(=O)[C@H](Cc1ccccc1)NC(=O)/C=C/c1ccccc1`, in data set [1], the IC50 is greater than 20 µM. In the data set on Enterovirus A71, this compound showed an EC50 greater than 20 µM. For the same compound, in data set [2], the half-maximal cytotoxic concentration (CC50) at 24 h is greater than 100 µM.

In turn, `CCCCCNC(=O)C(=O)[C@H](C[C@@H]1CCCNC1=O)NC(=O)[C@H](Cc1ccccc1)NC(=O)/C=C/c1ccccc1` registered an IC50 in data set [1] greater than 20 µM. Besides, the concentration giving a half-maximal response (EC50) in the data set on Enterovirus A71 is greater than 20 µM. Moreover, the CC50 at 24 h in data set [2] was greater than 100 µM.

For the compound `O=C(/C=C/c1ccccc1)NC(Cc1ccccc1)C(=O)NC(CC1CCNC1=O)C(=O)C(=O)NCc1ccccc1` (single isomer, unassigned), the IC50 in data set [1] was greater than 20 µM. The compound also showed an EC50 in the data set with Enterovirus A71 greater than 20 µM. The same compound showed a half-maximal cytotoxic concentration (CC50) at 24 h in data set [2] greater than 100 µM.

In turn, `O=C(/C=C/c1ccccc1)N[C@@H](Cc1ccc(F)cc1)C(=O)N[C@@H](C[C@@H]1CCCNC1=O)C(=O)C(=O)NC1CC1` gave an IC50 in data set [1] of 1.52 µM. The same compound showed an EC50 in the data set on Enterovirus A71 of 1.55 µM. In data set [2], this compound had a CC50 at 24 h greater than 100 µM.

In data set [1], `CCCNC(=O)C(=O)[C@H](C[C@@H]1CCCNC1=O)NC(=O)[C@H](Cc1ccc(F)cc1)NC(=O)/C=C/c1ccccc1` returned an IC50 of 1.88 µM. Further, the half-maximal effective concentration (EC50) in the data set with Enterovirus A71 came to 1.08 µM. Moreover, in data set [2], the CC50 at 24 h is greater than 100 µM.

In data set [1], `O=C(/C=C/c1ccccc1)N[C@@H](Cc1ccccc1)C(=O)N[C@@H](C[C@@H]1CCCNC1=O)C(=O)C(=O)NC1CC1` gave an IC50 of 3.32 µM. The compound also returned an EC50 in the data set with Enterovirus A71 of 3.57 µM. This compound had a CC50 at 24 h in data set [2] greater than 100 µM.

Turning to `O=C(/C=C/c1ccccc1)N[C@@H](Cc1ccccc1)C(=O)N[C@@H](C[C@@H]1CCCNC1=O)C(=O)C(=O)NC1CCCCC1`, the 50% inhibitory concentration (IC50) in data set [1] is 4.86 µM. Moreover, the EC50 in the data set with Enterovirus A71 is 2.63 µM. This compound also yielded a CC50 at 24 h in data set [2] greater than 100 µM.

For the compound `O=C(/C=C/c1ccccc1)N[C@@H](Cc1ccccc1)C(=O)N[C@@H](C[C@@H]1CCNC1=O)C(=O)C(=O)Nc1ccccc1`, the IC50 in data set [1] was greater than 20 µM. The compound further had an EC50 in the data set on Enterovirus A71 greater than 20 µM. For the same compound, the CC50 at 24 h in data set [2] was greater than 100 µM.

In data set [1], `Cc1ccc(NC(=O)C(=O)[C@H](C[C@@H]2CCCNC2=O)NC(=O)[C@H](Cc2ccccc2)NC(=O)/C=C/c2ccccc2)cc1` came in with a concentration for half-maximal inhibition (IC50) greater than 20 µM. The compound also registered a half-maximal effective concentration (EC50) with Enterovirus A71 greater than 20 µM. This compound also registered a 50% cytotoxic concentration (CC50) at 24 h in data set [2] greater than 100 µM.

As for `CCCCNC(=O)C(=O)[C@H](C[C@@H]1CCCNC1=O)NC(=O)[C@H](Cc1ccccc1)NC(=O)/C=C/c1ccccc1`, the IC50 in data set [1] was determined as 8.21 µM. The compound also yielded an EC50 in the data set on Enterovirus A71 of 11.6 µM. The CC50 at 24 h in data set [2] was greater than 100 µM.

In data set [1], `O=C(/C=C/c1ccccc1)N[C@@H](Cc1ccccc1)C(=O)N[C@@H](C[C@@H]1CCCNC1=O)C(=O)C(=O)Nc1ccccc1` showed an IC50 greater than 20 µM. The compound also registered an EC50 in the data set with Enterovirus A71 greater than 20 µM. Further, in data set [2], the CC50 at 24 h was greater than 100 µM.

Compound `CC(C)(C)NC(=O)C(=O)[C@H](C[C@@H]1CCCNC1=O)NC(=O)[C@H](Cc1ccccc1)NC(=O)/C=C/c1ccccc1` yielded an IC50 in data set [1] greater than 20 µM. Further, the half-maximal effective concentration (EC50) in the data set on Enterovirus A71 is greater than 20 µM. Also, the CC50 at 24 h in data set [2] was greater than 100 µM.

As to `CC(C)(C)OC(=O)N[C@@H](Cc1ccc(F)cc1)C(=O)N[C@@H](C[C@@H]1CCCNC1=O)C(=O)C(=O)NC1CC1`, 1.78 µM corresponded to half-maximal inhibition in data set [1] (IC50). This compound showed an EC50 with Enterovirus A71 of 1.68 µM. In data set [2], this compound yielded a CC50 at 24 h greater than 100 µM.

For `O=C(/C=C/c1ccccc1)N[C@@H](Cc1ccccc1)C(=O)N[C@@H](C[C@@H]1CCCNC1=O)C(=O)C(=O)NCc1ccco1`, the half-inhibitory concentration (IC50) in data set [1] is 6.3 µM. In the data set with Enterovirus A71, this compound displayed an EC50 of 4.5 µM. The compound further yielded a half-maximal cytotoxic concentration (CC50) at 24 h in data set [2] greater than 100 µM.

Regarding `CNC(=O)C(=O)[C@H](C[C@@H]1CCCNC1=O)NC(=O)[C@H](Cc1ccccc1)NC(=O)/C=C/c1ccccc1`, the midpoint of inhibition in data set [1], the IC50, lay at 4.08 µM. For the same compound, the EC50 with Enterovirus A71 was 9.59 µM. In data set [2], this compound displayed a CC50 at 24 h greater than 100 µM.

Consider `O=C(/C=C/c1ccccc1)NC(Cc1ccccc1)C(=O)NC(CC1CCCNC1=O)C(=O)C(=O)Nc1ccc([N+](=O)[O-])cc1` (single isomer, unassigned), for which the half-maximal inhibitory concentration (IC50) in data set [1] is greater than 20 µM. This compound also registered a half-maximal effective concentration (EC50) in the data set with Enterovirus A71 greater than 20 µM. The same compound returned a CC50 at 24 h in data set [2] greater than 100 µM.

On to `O=C(/C=C/c1ccccc1)N[C@@H](Cc1ccc(F)cc1)C(=O)N[C@@H](C[C@@H]1CCCNC1=O)C(=O)C(=O)NC1CCCCC1`, for which 3.71 µM corresponded to half-maximal inhibition in data set [1] (IC50). For the same compound, the EC50 in the data set on Enterovirus A71 is 2.78 µM. The 50% cytotoxic concentration (CC50) at 24 h in data set [2] was greater than 100 µM.

In data set [1], `CC(C)NC(=O)C(=O)[C@H](CC1CCCNC1=O)NC(=O)[C@H](Cc1ccc(F)cc1)NC(=O)OCc1ccccc1` (single isomer, unassigned) gave an IC50 of 1.42 µM. For the same compound, in the data set on Enterovirus A71, a half-maximal response (EC50) required 1.32 µM. Moreover, the cytotoxic concentration (CC50) at 24 h in data set [2] is greater than 100 µM.

On to `O=C(/C=C/c1ccccc1)N[C@@H](Cc1ccccc1)C(=O)N[C@@H](C[C@@H]1CCCNC1=O)C(=O)C(=O)NCc1ccccc1`, for which the IC50 in data set [1] was 7.83 µM. In addition, the concentration for a half-maximal effect (EC50) with Enterovirus A71 amounted to 5.42 µM. This compound yielded a CC50 at 24 h in data set [2] greater than 100 µM.

As to `CC(C)NC(=O)C(=O)[C@H](C[C@@H]1CCNC1=O)NC(=O)[C@H](Cc1ccccc1)NC(=O)/C=C/c1ccccc1`, in data set [1], 8.75 µM corresponded to half-maximal inhibition (IC50). The EC50 in the data set on Enterovirus A71 was found to be 6.45 µM. Moreover, the CC50 at 24 h in data set [2] was greater than 100 µM.

In data set [1], `CCCNC(=O)C(=O)[C@H](C[C@@H]1CCCNC1=O)NC(=O)[C@H](Cc1ccccc1)NC(=O)/C=C/c1ccccc1` had a half-inhibitory concentration (IC50) of 6.22 µM. In the data set on Enterovirus A71, this compound returned an EC50 of 4.59 µM. Moreover, the CC50 at 24 h in data set [2] is greater than 100 µM.

As for `CC(C)CNC(=O)C(=O)[C@H](C[C@@H]1CCCNC1=O)NC(=O)[C@H](Cc1ccccc1)NC(=O)/C=C/c1ccccc1`, in data set [1], the IC50 turned out to be 5.07 µM. Also, in the data set on Enterovirus A71, the EC50 stood at 11 µM. Besides, the CC50 at 24 h in data set [2] was greater than 100 µM.

For `CC(C)NC(=O)C(=O)[C@H](C[C@@H]1CCCNC1=O)NC(=O)[C@H](Cc1ccc(F)cc1)NC(=O)/C=C/c1ccccc1`, 1.32 µM corresponded to half-maximal inhibition in data set [1] (IC50). In the data set with Enterovirus A71, this compound had an EC50 of 1.12 µM. In data set [2], this compound displayed a cytotoxic concentration (CC50) at 24 h greater than 100 µM.

As to `CCCCNC(=O)C(=O)[C@H](C[C@@H]1CCNC1=O)NC(=O)[C@H](Cc1ccccc1)NC(=O)/C=C/c1ccccc1`, the IC50 in data set [1] is 17.6 µM. In the data set with Enterovirus A71, this compound showed an EC50 of 15.5 µM. In data set [2], this compound displayed a CC50 at 24 h greater than 100 µM.
